Values after ≈ are worked out from the molar mass of the structure shown. Like-named read-outs stand apart in the source and are kept apart here.

We go through one compound from patent US20100240746A1, “STEREOISOMERS OF TRICYCLODECAN-9-YL-XANTHOGENATE” (LUMAVITA AG, priority 2007, published 2010).

The test system of assay [1] is HPV-31 specific DNA in HPV-31-infected CIN612 9E keratinocytes. The assay is described as follows: Short-term study, inhibition of HPV-31 specific DNA (Southern Blot). The assay is classed as cell-based, human papilloma virus. The conditions noted are these: Human papillomavirus, Keratinocyte; at 32 μg/mL, 72 hrs. Here is the method:
(§1) The inhibitory activities of optically active (−)-enantiomer 1A against human papilloma virus were evaluated using HPV-31-infected CIN612 9E keratinocytes (Meyers et al., Science 1992, 257, 971-973).
(§2) Effect on HPV-31 specific DNA and RNA. HPV-31 infected cells (3×10^6) were dispensed into 14.5 cm dishes containing fresh E culture medium and 1×10^6 mitomycin C-treated J2 3T3 fibroblast feeders. After 6 hrs, fresh medium containing 0.85 g/L NaHCO3 and a test compound at a series of concentrations (0, 0.5, 1, 2, 4, 8, 16, and 32 μg/mL) were added. All samples were tested in duplicates at each concentration. After incubation at 37° C. for 72 hrs, the feeder cells were removed with 4 mM EDTA, and DNA and RNA was then isolated. The isolated DNA and RNA were analyzed in Southern and Northern Blot gels for HPV-31 specific sequences. Human A431 epithelial cancer cells were used as HPV-uninfected negative control. X-ray films were scanned and optical densities of HPV-31 specific DNA and major mRNA species were integrated.
(§3) Dose response curves were established by plotting integrated values against the concentrations of the test compound.

For assay [2] the test system is unchanged. The assay is described as follows: Long-term study, HPV-31 specific DNA (Southern Blot). The assay is classed as cell-based, human papilloma virus. Here is the method:
(§4) HPV-31 infected cells (3×10^6) were dispensed into 14.5 cm dishes containing fresh E medium and 1×10^6 cells of mitomycin C-treated 3T3 fibroblast feeders. The dishes were incubated in a CO2 incubator under 5% CO2 at 37° C. in 100% humidity. Human A431 epithelial cancer cells were used as HPV-uninfected negative controls. After 6 hr incubation, the cell culture medium was removed and fresh E medium containing 0.85 g/L NaHCO3 and a test compound at concentrations of 10 and 3.3 μg/mL, or control (interferon γ at 200 IU/mL) were added. For each concentration, 4 dishes were prepared. The dishes were incubated at 37° C. in a CO2 incubator. The culture medium was replaced to new E medium containing each concentration of the test compound or control in every 72 hrs. After seven days, or when untreated cells became confluent, one dish of each group was harvested for DNA/RNA extraction, followed by Southern/Northern Blot analysis; and one dish was trypsinized, cell number were determined and cells were seeded in three new dishes, treated and cultured as described above. This procedure was repeated for 9 passages. During these passages, morphology of cells and cell density were monitored.
(§5) Effect on HPV-31 specific DNA and RNA: DNA and RNA were analyzed in Southern and Northern Blot gels for HPV-31 specific sequences. X-ray films were scanned and optical densities of HPV-31 specific DNA and major mRNA species were integrated. Time curves were established by plotting integrated values against number of passages for each treatment dose. The T50 (time required to reduce the level to 50% of control) was determined from the time curves from crossing points of time curves with a line parallel to the x-axis corresponding to 50% of integrals of untreated control sample.

Assay [3] deals with bovine papilloma virus type I (BPV-1)-transformed HEF (HEF-BPV). The assay is described as follows: Inhibition of bovine papilloma virus, BPV-infected hamster embryo fibroblasts (HEF) cell proliferation assay. The assay is classed as cell-based. The conditions noted are these: HEF-BPV, 72 hr, 37° C., pH 6.8. Here is the method: Briefly, hamster embryo fibroblasts and bovine papilloma virus type I (BPV-1)-transformed HEF (HEF-BPV) were grown in Eagle's basal medium. […] and HEF cells were seeded in 96-well plates at a density of 0.5×10^6 cells per plate in DMEM cell culture medium containing 10% fetal calf serum at pH 6.8. The plates were then incubated in the presence of 5% CO2 in 100% humidity at 37° C. After 6 hr, the cell culture medium in the plates was exchanged with fresh DMEM cell culture medium containing test compounds at a series of concentrations. The plates were incubated at 37° C. for additional 72 hr. Cells in the plates were then washed with PBS, fixed with 3% formaldehyde solution containing 0.9% NaCl for 1 min, washed by water for 10 sec, and dried overnight. For detection, the plates were stained with crystal violet solution for 5 min at room temperature, washed 5 times with water, and dried at room temperature overnight. After adding ethanol/acetic acid (99:1, v/v, […]) to each well, the plates were measured at 595 nm using an ELISA reader.

In assay [4] the test system is A431 cells (epithelial cancer cells). Kind of assay: Long-term study, growth of HPV-uninfected control A431 cells over 9 passages. The assay is classed as cell-based, human. Here is the method: as §4
Effect on cell proliferation. Cell numbers in the dishes harvested were determined in a Neubauer hematocytometer. The multiplication factor was determined at every step of passage. The cell number of each culture at the end of the passage was divided by the number of seeded cells at the start of each passage. The end point was reached when keratinocytes treated with a test compound stopped growing. Stop of cell growth was defined as a multiplication factor of no greater than 1.

The test system of assay [5] is HPV-31 specific RNA in HPV-31-infected CIN612 9E keratinocytes. The assay is described as follows: Long-term study, HPV-31 specific RNA (Northern Blot). The assay is classed as cell-based, human papilloma virus. Here is the method:
as §4, §5

Assay [6] shares this test system. Kind of assay: Short-term study, inhibition of HPV-31 specific RNA expression (Northern Blot). In kind it is cell-based, human papilloma virus. To be noted: Human papillomavirus, Keratinocyte; 72 hrs, 37° C. The protocol: as §1, §2, §3
[7] abbreviates: 10 μg/mL, listed as (−)-enantiomer 1A.

Regarding `S=C(S)OC1CC2CC1C1CCCC21` (single isomer, unassigned; (-)) [(−)-Enantiomer 1A, (−)-O-exo/C-exo-tricyclo[5.2.1.0^2,6]-dec-9-yl-xanthic acid], the inhibition at 32 µg/mL in assay [1] was determined as 37.5%. Further, the “T50 DNA” value in assay [2] (3.3 μg/mL) is reported as 2.23 passages; in assay [2] (setting [7]) it was less than 1 passages; in assay [2] (10 μg/mL, listed as Cmpd 1A), less than 1 passages. In assay [2] (3.3 μg/mL or 10 μg/mL), the “HPV-31 specific DNA content” value is “continuous reductions”. Besides, the activity at 10 µg/mL was less than 5% in assay [2] (Human papillomavirus, Keratinocyte, 10 μg/mL, after 6 passages, read-out: number of viral genomes per cell, reduced to) and less than 1% in assay [2] (Human papillomavirus, Keratinocyte, 10 μg/mL, after 9 passages, read-out: viral DNA remaining). Moreover, the inhibition at 10 µg/mL in assay [2] (Human papillomavirus, Keratinocyte, 10 μg/mL, after a single passage, read-out: reduction of number of viral genomes per cell) is greater than 50%. Besides, the figures for the IC50 in assay [3] and in assay [6] were 11.07 ± 0.18 µg/mL (≈ 48.5 µM) and 10.7 µg/mL (≈ 46.9 µM), respectively. Moreover, the figures for the cell growth result in assay [4] (3.3 μg/mL), in assay [4] (10 μg/mL) and in assay [4] (overall) were “slight inhibition of cell growth”, “slight inhibition of cell growth” and “only minor effects on cell growth”, respectively. The “T50 RNA” value in assay [5] (3.3 μg/mL) is recorded as 3.28 passages; in assay [5] (setting [7]) it was less than 1 passages; in assay [5] (10 μg/mL, listed as Cmpd 1A), less than 1 passages. The “HPV-31 specific RNA content” value in assay [5] (3.3 μg/mL or 10 μg/mL) is “continuous reductions”. The mrna remaining at 10 µg/mL in assay [5] (Homo sapiens, Keratinocyte, 10 μg/mL, after 9 passages, read-out: viral RNA remaining) was less than 1%.
